From PubChem BioAssay (NCI)
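Five concentrations, 48 hours, 96-well plates. At the TGI there is no net growth.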

Tests used:
Test in all cases: growth of human tumour cells (NCI), 48 h
786-0 renal = tested on: 786-0 renal
A498 renal = tested on: A498 renal
A549 NSCLC = tested on: A549 NSCLC
ACHN renal = tested on: ACHN renal
CAKI-1 renal = tested on: CAKI-1 renal
COLO 205 colon = tested on: COLO 205 colon
DLD-1 colon = tested on: DLD-1 colon
DMS 114 small cell lung = tested on: DMS 114 small cell lung
DMS 273 small cell lung = tested on: DMS 273 small cell lung
EKVX NSCLC = tested on: EKVX NSCLC
HCC-2998 colon = tested on: HCC-2998 colon
HCT-116 colon = tested on: HCT-116 colon
HCT-15 colon = tested on: HCT-15 colon
HOP-18 NSCLC = tested on: HOP-18 NSCLC
HOP-62 NSCLC = tested on: HOP-62 NSCLC
HOP-92 NSCLC = tested on: HOP-92 NSCLC
HT29 colon = tested on: HT29 colon
IGROV1 ovarian = tested on: IGROV1 ovarian
KM12 colon = tested on: KM12 colon
KM20L2 colon = tested on: KM20L2 colon
LOX IMVI melanoma = tested on: LOX IMVI melanoma
LXFL 529 NSCLC = tested on: LXFL 529 NSCLC
M14 melanoma = tested on: M14 melanoma
M19-MEL melanoma = tested on: M19-MEL melanoma
MALME-3M melanoma = tested on: MALME-3M melanoma
NCI-H226 lung = tested on: NCI-H226 lung
NCI-H23 lung = tested on: NCI-H23 lung
NCI-H460 lung = tested on: NCI-H460 lung
NCI-H522 lung = tested on: NCI-H522 lung
OVCAR-3 ovarian = tested on: OVCAR-3 ovarian
OVCAR-4 ovarian = tested on: OVCAR-4 ovarian
OVCAR-5 ovarian = tested on: OVCAR-5 ovarian
OVCAR-8 ovarian = tested on: OVCAR-8 ovarian
RPMI-8226 leukemia = tested on: RPMI-8226 leukemia
RXF 393 renal = tested on: RXF 393 renal
RXF-631 renal = tested on: RXF-631 renal
SF-268 CNS = tested on: SF-268 CNS
SF-295 CNS = tested on: SF-295 CNS
SF-539 CNS = tested on: SF-539 CNS
SK-MEL-28 melanoma = tested on: SK-MEL-28 melanoma
SK-MEL-5 melanoma = tested on: SK-MEL-5 melanoma
SK-OV-3 ovarian = tested on: SK-OV-3 ovarian
SN12C renal = tested on: SN12C renal
SNB-19 CNS = tested on: SNB-19 CNS
SNB-75 CNS = tested on: SNB-75 CNS
SNB-78 CNS = tested on: SNB-78 CNS
SW-620 colon = tested on: SW-620 colon
TK-10 renal = tested on: TK-10 renal
U251 CNS = tested on: U251 CNS
UACC-257 melanoma = tested on: UACC-257 melanoma
UACC-62 melanoma = tested on: UACC-62 melanoma
UO-31 renal = tested on: UO-31 renal

Measured: TGI

O=C1OCC(C(=O)c2cccc(O)c2)C1=O (configuration not stated)
> 100 µM: all assays above
